Experimental data reported in ChEMBL document CHEMBL2375290, “Nonclassical antifolates, part 3: synthesis, biological evaluation and molecular modeling study of some new 2-heteroarylthio-quinazolin-4-ones” (Eur J Med Chem, 2013).

Key:
[1] = tested on: Pseudomonas aeruginosa; assay: Antimicrobial activity against Pseudomonas aeruginosa at 200 ug after 24 hrs by agar disc diffusion method; type: functional; conditions: read-out: DIZ
[2] = tested on: Escherichia coli; assay: Antimicrobial activity against Escherichia coli at 200 ug after 24 hrs by agar disc diffusion method; type: functional; conditions: read-out: DIZ
[3] = tested on: Micrococcus luteus; assay: Antimicrobial activity against Micrococcus luteus at 200 ug after 24 hrs by agar disc diffusion method; type: functional; conditions: read-out: DIZ
[4] = tested on: Bacillus subtilis; assay: Antimicrobial activity against Bacillus subtilis at 200 ug after 24 hrs by agar disc diffusion method; type: functional; conditions: read-out: DIZ
[5] = target: T1, Dihydrofolate reductase (Bos taurus, UniProt P00376); assay: Inhibition of bovine DHFR after 2 mins by spectrophotometry
T1 sequence (P00376 whole entry): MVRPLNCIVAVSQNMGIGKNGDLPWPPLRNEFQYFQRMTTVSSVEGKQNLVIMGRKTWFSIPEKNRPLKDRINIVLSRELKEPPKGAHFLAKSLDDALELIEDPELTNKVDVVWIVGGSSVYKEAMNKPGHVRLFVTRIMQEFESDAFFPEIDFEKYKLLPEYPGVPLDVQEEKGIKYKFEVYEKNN

[6] = tested on: Staphylococcus aureus; assay: Antimicrobial activity against Staphylococcus aureus at 200 ug after 24 hrs by agar disc diffusion method; type: functional; conditions: read-out: DIZ
[7] = tested on: T47D; assay: Cytotoxicity against human T47D cells at 10 uM after 48 hrs by coulter counter analysis; type: functional; conditions: read-out: GI
[8] = tested on: Hs-578T; assay: Cytotoxicity against human Hs578T cells at 10 uM after 48 hrs by coulter counter analysis; type: functional; conditions: read-out: GI
[9] = tested on: MCF7; assay: Cytotoxicity against human MCF7 cells at 10 uM after 48 hrs by coulter counter analysis; type: functional; conditions: MCF7, 48 h, read-out: GI
[10] = tested on: MDA-MB-231; assay: Cytotoxicity against human MDA-MB-231 cells at 10 uM after 48 hrs by coulter counter analysis; type: functional; conditions: MDA-MB-231, 48 h, read-out: GI
[11] = tested on: PC-3; assay: Cytotoxicity against human PC3 cells at 10 uM after 48 hrs by coulter counter analysis; type: functional; conditions: PC-3, 48 h, read-out: GI
[12] = tested on: UO-31; assay: Cytotoxicity against human UO31 cells at 10 uM after 48 hrs by coulter counter analysis; type: functional; conditions: UO-31, 48 h, read-out: GI
[13] = tested on: RXF 393; assay: Cytotoxicity against human RXF393 cells at 10 uM after 48 hrs by coulter counter analysis; type: functional; conditions: RXF 393, 48 h, read-out: GI
[14] = tested on: SN12C; assay: Cytotoxicity against human SN12C cells at 10 uM after 48 hrs by coulter counter analysis; type: functional; conditions: read-out: GI
[15] = tested on: A498; assay: Cytotoxicity against human A498 cells at 10 uM after 48 hrs by coulter counter analysis; type: functional; conditions: A498, 48 h, read-out: GI
[16] = tested on: CAKI-1; assay: Cytotoxicity against human Caki1 cells at 10 uM after 48 hrs by coulter counter analysis; type: functional; conditions: CAKI-1, 48 h, read-out: GI
[17] = Cytotoxicity against human NCI-ADR-RES cells at 10 uM after 48 hrs by coulter counter analysis; type: functional; conditions: read-out: GI
[18] = tested on: OVCAR-4; assay: Cytotoxicity against human OVCAR4 cells at 10 uM after 48 hrs by coulter counter analysis; type: functional; conditions: OVCAR-4, 48 h, read-out: GI
[19] = tested on: UACC-62; assay: Cytotoxicity against human UACC62 cells at 10 uM after 48 hrs by coulter counter analysis; type: functional; conditions: UACC-62, 48 h, read-out: GI
[20] = tested on: IGROV-1; assay: Cytotoxicity against human IGROV1 cells at 10 uM after 48 hrs by coulter counter analysis; type: functional; conditions: IGROV-1, 48 h, read-out: GI
[21] = tested on: SK-MEL-5; assay: Cytotoxicity against human SK-MEL-5 cells at 10 uM after 48 hrs by coulter counter analysis; type: functional; conditions: SK-MEL-5, 48 h, read-out: GI
[22] = tested on: Malme-3M; assay: Cytotoxicity against human MALME-3M cells at 10 uM after 48 hrs by coulter counter analysis; type: functional; conditions: read-out: GI
[23] = tested on: MDA-MB-435; assay: Cytotoxicity against human MDA-MB-435 cells at 10 uM after 48 hrs by coulter counter analysis; type: functional; conditions: MDA-MB-435, 48 h, read-out: GI
[24] = tested on: SNB-75; assay: Cytotoxicity against human SNB75 cells at 10 uM after 48 hrs by coulter counter analysis; type: functional; conditions: SNB-75, 48 h, read-out: GI
[25] = tested on: LOX IMVI; assay: Cytotoxicity against human LOXIMVI cells at 10 uM after 48 hrs by coulter counter analysis; type: functional; conditions: read-out: GI
[26] = tested on: SNB-19; assay: Cytotoxicity against human SNB19 cells at 10 uM after 48 hrs by coulter counter analysis; type: functional; conditions: SNB-19, 48 h, read-out: GI
[27] = tested on: NCI-H522; assay: Cytotoxicity against human NCI-H522 cells at 10 uM after 48 hrs by coulter counter analysis; type: functional; conditions: NCI-H522, 48 h, read-out: GI
[28] = tested on: SF-295; assay: Cytotoxicity against human SF295 cells at 10 uM after 48 hrs by coulter counter analysis; type: functional; conditions: SF-295, 48 h, read-out: GI
[29] = tested on: NCI-H23; assay: Cytotoxicity against human NCI-H23 cells at 10 uM after 48 hrs by coulter counter analysis; type: functional; conditions: NCI-H23, 48 h, read-out: GI
[30] = Cytotoxicity against human EKVX cells at 10 uM after 48 hrs by coulter counter analysis; type: functional; conditions: read-out: GI
[31] = tested on: NCI-H226; assay: Cytotoxicity against human NCI-H226 cells at 10 uM after 48 hrs by coulter counter analysis; type: functional; conditions: NCI-H226, 48 h, read-out: GI
[32] = tested on: A549; assay: Cytotoxicity against human A549/ATCC cells at 10 uM after 48 hrs by coulter counter analysis; type: functional; conditions: A549, 48 h, read-out: GI
[33] = tested on: RPMI-8226; assay: Cytotoxicity against human RPMI8226 cells at 10 uM after 48 hrs by coulter counter analysis; type: functional; conditions: RPMI-8226, 48 h, read-out: GI
[34] = tested on: SR; assay: Cytotoxicity against human SR cells at 10 uM after 48 hrs by coulter counter analysis; type: functional; conditions: read-out: GI
[35] = tested on: MOLT-4; assay: Cytotoxicity against human MOLT4 cells at 10 uM after 48 hrs by coulter counter analysis; type: functional; conditions: MOLT-4, 48 h, read-out: GI
[36] = tested on: CCRF-CEM; assay: Cytotoxicity against human CCRF-CEM cells at 10 uM after 48 hrs by coulter counter analysis; type: functional; conditions: read-out: GI
[37] = tested on: HL-60(TB); assay: Cytotoxicity against human HL-60(TB) cells at 10 uM after 48 hrs by coulter counter analysis; type: functional; conditions: HL-60, 48 h, read-out: GI

| Compound | zone of inhibition at 200 µg/disc [1] | zone of inhibition at 200 µg/disc [2] | zone of inhibition at 200 µg/disc [3] | zone of inhibition at 200 µg/disc [4] | IC50 [5] | zone of inhibition at 200 µg/disc [6] | inhibition of growth at 10 µM [7] | inhibition of growth at 10 µM [8] | inhibition of growth at 10 µM [9] | inhibition of growth at 10 µM [10] | inhibition of growth at 10 µM [11] | inhibition of growth at 10 µM [12] | inhibition of growth at 10 µM [13] | inhibition of growth at 10 µM [14] | inhibition of growth at 10 µM [15] | inhibition of growth at 10 µM [16] | inhibition of growth at 10 µM [17] | inhibition of growth at 10 µM [18] | inhibition of growth at 10 µM [19] | inhibition of growth at 10 µM [20] | other results |
| --- | --- | --- | --- | --- | --- | --- | --- | --- | --- | --- | --- | --- | --- | --- | --- | --- | --- | --- | --- | --- | --- |
| Cc1ccc2nc(Sc3cc([N+](=O)[O-])ccc3C(=O)O)n(-c3ccccc3)c(=O)c2c1 | 8 mm | 8 mm | 8 mm | 8 mm | 10 µM | 8 mm |  |  |  |  |  |  |  |  |  |  |  |  |  |  |  |
| COc1cc2nc(Sc3cc([N+](=O)[O-])ccc3C(=O)O)n(Cc3ccccc3)c(=O)c2cc1OC | 8 mm | 8 mm | 8 mm | 8 mm | 3 µM | 18 mm |  |  |  |  |  |  |  |  |  |  |  |  |  |  |  |
| COc1cc2nc(Sc3cnc(N)s3)n(Cc3ccccc3)c(=O)c2cc1OC | 8 mm | 16 mm | 8 mm | 18 mm | 3 µM | 17 mm | < 10% | < 10% | < 10% | 19.1% | 22.4% | 17.4% | < 10% | < 10% | < 10% | 25.4% | < 10% | < 10% | < 10% | < 10% | inhibition of growth at 10 µM [21]: 12.9%; inhibition of growth at 10 µM [22]: < 10%; inhibition of growth at 10 µM [23]: < 10%; inhibition of growth at 10 µM [24]: 13.3%; inhibition of growth at 10 µM [25]: 10.8%; inhibition of growth at 10 µM [26]: < 10%; inhibition of growth at 10 µM [27]: 19.8%; inhibition of growth at 10 µM [28]: < 10%; inhibition of growth at 10 µM [29]: < 10%; inhibition of growth at 10 µM [30]: 16.1%; inhibition of growth at 10 µM [31]: 10.4%; inhibition of growth at 10 µM [32]: < 10%; inhibition of growth at 10 µM [33]: 15.9%; inhibition of growth at 10 µM [34]: < 10%; inhibition of growth at 10 µM [35]: < 10%; inhibition of growth at 10 µM [36]: 22.8%; inhibition of growth at 10 µM [37]: < 10% |
| Nc1ncc(Sc2nc3ccc(Cl)cc3c(=O)n2Cc2ccccc2)s1 | 8 mm | 15 mm | 8 mm | 18 mm | 2 µM | 16 mm | 10.4% | < 10% | < 10% | 11.2% | 28.2% | 14.8% | < 10% | < 10% | 11.2% | 25.6% | < 10% | 13.8% | 14.4% | 12% | inhibition of growth at 10 µM [21]: < 10%; inhibition of growth at 10 µM [22]: 10.8%; inhibition of growth at 10 µM [23]: < 10%; inhibition of growth at 10 µM [24]: 10.7%; inhibition of growth at 10 µM [25]: 14.9%; inhibition of growth at 10 µM [26]: < 10%; inhibition of growth at 10 µM [27]: 16%; inhibition of growth at 10 µM [28]: 16.6%; inhibition of growth at 10 µM [29]: < 10%; inhibition of growth at 10 µM [30]: 11.9%; inhibition of growth at 10 µM [31]: 17.1%; inhibition of growth at 10 µM [32]: < 10%; inhibition of growth at 10 µM [33]: 18.9%; inhibition of growth at 10 µM [34]: < 10%; inhibition of growth at 10 µM [35]: 16.8%; inhibition of growth at 10 µM [36]: 13.7%; inhibition of growth at 10 µM [37]: < 10% |
| CCOC(=O)c1nc(N)sc1Sc1nc2ccc(Cl)cc2c(=O)n1-c1ccccc1 | 8 mm | 8 mm | 8 mm | 8 mm | 3 µM | 8 mm |  |  |  |  |  |  |  |  |  |  |  |  |  |  |  |
